Consider 5 molecules from article PMC6346587, “Glucose 6-phosphate dehydrogenase 6-phosphogluconolactonase: characterization of the Plasmodium vivax enzyme and inhibitor studies” (Malaria Journal, 2019).

Data set [1] deals with P. falciparum 3D7[hGrx1-roGFP2] cytosolic glutathione-dependent redox potential. The experiment in a line: Cytosolic glutathione redox sensor hGrx1-roGFP2, confocal live cell imaging (CLSM). The format is cell-based, Plasmodium falciparum. To be noted: 24 h incubation, approximately 4 × EC50. Here is the method:
A Leica confocal system TCS SP5 inverted microscope equipped with the objective HCX PL APO 63.0 × 1.30 GLYC 37 °C UV connected to a 37 °C temperature chamber was used. The argon laser power was set to 20%; scanning was performed at 400 Hz frequency and at a 512 × 512 pixel resolution. The smart gain and smart offset were 950 V and −0.9%, respectively. With a sequential scan, the hGrx1–roGFP2 probe was excited at 405 nm and at 488 nm and emission was detected at 500–550 nm. Laser intensity was adjusted to match the full dynamic range of the probe to the dynamic range of the detector (405 nm: 10%, 488 nm: 4%). […] The Leica LAS AF Lite software for fluorescence analysis was used. The 405/488 nm ratio was calculated. The graphs were plotted using the GraphPad Prism 5 software (San Diego, CA, USA). For live cell imaging, only parasites showing fluorescent signals at both 405 and 488 nm excitation and an intact host cell were chosen.
The effect of ML304 and the anti-malarial drugs ATS and CQ as reference drugs on P. falciparum were investigated in 4 h and 24 h incubation experiments. […] For 4 h experiments, trophozoite stage parasites (26–30 h) of 3D7^[hGrx1–roGFP2] and NF54^[hGrx1–roGFP2] (6–8% parasitaemia) were magnetically enriched (Miltenyi Biotec, Germany), counted by using a Neubauer hemocytometer (Brand GmbH, Germany), and returned to cell culture (at 2.0 × 10^4 trophozoites μL^−1) for at least 1 h to recover. 1.0 × 10^6 cells in 100 μL cell culture medium were placed into LoBind tubes (Eppendorf, Hamburg, Germany) for 4 h incubation experiments. The parasites were treated with ML304 at 1 μM, 50 μM, and 100 μM, or with the anti-malarial drugs ATS and CQ at approximately 50 × EC50 for 4 h under cell culture conditions. Subsequently, free thiol groups were blocked with 2 mM N-ethylmaleimide (NEM) for 15 min at 37 °C. For 24 h experiments, a 5 mL culture (5% haematocrit, 6–8% parasitaemia) of ring stage parasites (6–10 h post invasion) was treated with ML304 at 1 μM, 5 μM, and 10 μΜ, or the anti-malarial drugs ATS and CQ at approximately 4 × EC50. Prior to enrichment, cysteines were blocked with 2 mM NEM for 15 min at 37 °C. For 4 h and 24 h experiments, cells were washed after incubation and resuspended in Ringer’s solution (122.5 mM NaCl, 5.4 mM KCl, 1.2 mM CaCl2, 0.8 mM MgCl2, 11 mM D-glucose, 25 mM HEPES, 1 mM NaH2PO4, pH 7.4). 50 μL of cells (1.0 × 10^6 cells 50^−1 μL^−1) were seeded onto poly-L-lysine-coated μ-Slides 18 well (flat) (Ibidi, Martinsried, Germany) and measured using CLSM (confocal laser scanning microscopy) with excitation wavelengths at 405 nm and 488 nm. […] Each experiment was carried out three times. Between 10 and 20 microscopy images were taken each time, resulting in at least 30 experimental values per concentration and incubation time. The obtained ratio values were normalized to the control value, which was set to 100. All experiments were carried out within 6 weeks after the appearance of transfectants. Mean and standard error of the mean (SEM) are shown. A one-way ANOVA test with 95% confidence intervals with the Dunnett’s multiple comparison test (GraphPad Prism 5.0) was applied for statistical analysis of significance (*p < 0.05; **p < 0.01; ***p < 0.001).

The next data set addresses T1, recombinant hGrx1-roGFP2 (Homo sapiens, UniProt P35754).
T1 construct: made in house
Nature of the data set: In vitro interaction with recombinant hGrx1-roGFP2 probe. The format is biochemical. To be noted: at the concentrations used in this study. As for the experimental part: The sensor hGrx1–roGFP2 (human glutaredoxin 1-reduction–oxidation sensitive green fluorescent protein 2) was recently transiently expressed in 3D7 P. falciparum parasites by using the pARL1a(+) expression vector. Heterologous overexpression of hGrx1–roGFP2 for the evaluation of the in vitro interactions of ML304 and anti-malarial drugs with the recombinant redox probe was performed according to [35].
ML304 was used at concentrations of 10 nM to 1 mM in degassed standard reaction buffer (100 mM potassium phosphate, 1 mM EDTA, pH 7.0). […] The characterization of the in vitro interaction of hGrx1–roGFP2 with ML304 was performed according to Schuh et al..

Another data set deals with P. falciparum 3D7. The following applies: determined previously; cited from earlier work.
For the next data set, the target named is PvG6PD (Plasmodium vivax, UniProt A5K3M1). The experiment in a line: PvG6PD enzyme inhibition assay (NADPH formation, absorbance 340 nm / fluorescence). The format is biochemical. The following applies: for Type of inhibition of PvG6PD: with respect to both G6P and NADP+. As for the experimental part:
The G6PD activity of PfGluPho variants was measured spectrophotometrically as described for the wt enzyme. Kinetic characterization of PvG6PD was performed using the same assay system at an Evolution 300 spectrophotometer (Thermo Scientific, Dreieich, Germany). In brief, the initial reduction of NADP^+ to NADPH by PvG6PD was monitored by measuring the absorbance at 340 nm. The 500 µL reaction mixture contained 200 µM NADP^+ and varying concentrations of PvG6PD in an assay buffer of 100 mM Tris–HCl, pH 8.0, 10 mM MgCl2, and 0.5 mM EDTA at 25 °C. The reaction was started by adding 800 µM G6P. The KM for NADP^+ was determined by titrating NADP^+ from 2 to 400 µM at 800 µM G6P; the KM for G6P was measured accordingly by titrating G6P from 2 to 1200 µM at 200 µM NADP^+. KM values were calculated using GraphPad Prism. Since the KM for G6P was considerably higher than the value measured for PfGluPho [14], a concentration of 800 µM G6P was defined as substrate saturation for PvG6PD.
To identify potential inhibitors of PvG6PD, compounds with already known effects on PfGluPho (ellagic acid and derivatives, ML304) were tested. Additionally, several compound libraries of the Helmholtz Center for Infection Research, Brunswick, were screened against PfGluPho using the high-throughput-compatible assay systems described in Preuss et al.. […] Based on structure-activity relationship studies, a set of new potential G6PD inhibitors (Fig. 8) was then synthesized and assessed. First, the IC50 values of the compounds were determined, followed by mechanistic characterization of the mode of action. To test for selectivity of the compounds, the IC50 values of the compounds on PvG6PD, PfGluPho, and hG6PD were determined in parallel.
All measurements were performed in 96-well plates, half area (Greiner Bio-One, Frickenhausen, Germany) using a Tecan Infinite M200 plate reader (Maennedorf, Switzerland). The compounds were dissolved in 100% DMSO and afterwards diluted in assay buffer to the required concentrations. Different compound concentrations were added to a mixture of enzyme and NADP^+ in assay buffer. Concentrations of substrates differed depending on the enzyme; an overview is given in the Additional file 4. The reaction was started by adding G6P, and the increase of NADPH was monitored by measuring the absorbance at 340 nm. To increase the sensitivity of the assay, some measurements were reproduced, detecting the fluorescence of NADPH at ex340/em460. […] A negative control containing no compound was defined as 0% inhibition; a positive control lacking the substrate G6P was defined as 100% inhibition. For evaluations using GraphPad Prism and Microsoft Excel, only a linear increase in absorbance/fluorescence was considered. For the mechanistic characterization of the compounds, either NADP^+ or G6P were titrated at different compound concentrations around the IC50, while keeping the second substrate in saturation. The initial slope was plotted as Michaelis–Menten curves and Lineweaver–Burk plots using GraphPad Prism; KM values and Vmax were calculated with GraphPad Prism software.

For another data set, the target named is T2, PfGluPho (Plasmodium falciparum, UniProt Q8IKU0).
T2 construct: made in house
T2 sequence (Q8IKU0 1-910): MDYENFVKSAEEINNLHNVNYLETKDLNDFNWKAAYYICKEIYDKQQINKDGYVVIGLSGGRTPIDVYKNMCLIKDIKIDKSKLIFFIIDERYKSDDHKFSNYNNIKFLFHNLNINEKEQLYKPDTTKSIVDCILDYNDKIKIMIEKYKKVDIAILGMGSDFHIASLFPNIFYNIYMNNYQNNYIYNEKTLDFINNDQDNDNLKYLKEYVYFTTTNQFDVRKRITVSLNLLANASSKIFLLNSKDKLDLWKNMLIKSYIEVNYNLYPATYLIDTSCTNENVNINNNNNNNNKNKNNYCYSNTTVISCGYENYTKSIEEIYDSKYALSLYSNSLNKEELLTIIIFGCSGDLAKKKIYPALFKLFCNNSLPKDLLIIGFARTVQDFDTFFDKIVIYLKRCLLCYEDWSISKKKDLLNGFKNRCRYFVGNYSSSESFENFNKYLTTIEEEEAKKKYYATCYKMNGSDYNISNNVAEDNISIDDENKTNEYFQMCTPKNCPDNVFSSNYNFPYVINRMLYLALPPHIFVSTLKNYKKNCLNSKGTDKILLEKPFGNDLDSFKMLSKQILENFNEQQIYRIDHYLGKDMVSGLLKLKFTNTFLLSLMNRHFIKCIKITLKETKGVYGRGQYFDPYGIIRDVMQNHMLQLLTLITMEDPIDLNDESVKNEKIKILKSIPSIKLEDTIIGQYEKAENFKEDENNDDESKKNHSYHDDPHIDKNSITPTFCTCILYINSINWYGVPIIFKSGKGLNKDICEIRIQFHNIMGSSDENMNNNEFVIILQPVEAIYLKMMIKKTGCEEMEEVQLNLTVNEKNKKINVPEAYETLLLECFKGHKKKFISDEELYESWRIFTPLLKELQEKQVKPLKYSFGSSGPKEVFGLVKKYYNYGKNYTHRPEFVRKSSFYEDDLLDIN
To be noted: cited from earlier work.

Another data set addresses T3, hG6PD (Homo sapiens, UniProt P11413).
T3 construct: made in house
To be noted: ellagic acid; read-out: IC50 for hG6PD; cited from earlier work.

Another data set relates to P. falciparum strains. The following applies: cited from earlier work.
In data set [2] the test system is Plasmodium yoelii strain overproducing GSH. More on the design: method as in PMID 23029306. To be noted: cited from earlier work.
The conditions of data set [3]: cited from earlier work.
Data set [4] addresses PfPrx1a (Plasmodium falciparum). The experiment in a line: non-reducing SDS-PAGE with western blot; recombinant PfPrx1a (positive control) after incubation with GSSG, SDS-PAGE without DTT, anti-glutathione western blot and Ponceau staining.
Data set [5] concerns the molecule itself. Nature of the data set: SEC; gel filtration chromatography of purified PvG6PD under reducing conditions; single peak of approximately 389 kDa.

T3 sequence (P11413 whole entry): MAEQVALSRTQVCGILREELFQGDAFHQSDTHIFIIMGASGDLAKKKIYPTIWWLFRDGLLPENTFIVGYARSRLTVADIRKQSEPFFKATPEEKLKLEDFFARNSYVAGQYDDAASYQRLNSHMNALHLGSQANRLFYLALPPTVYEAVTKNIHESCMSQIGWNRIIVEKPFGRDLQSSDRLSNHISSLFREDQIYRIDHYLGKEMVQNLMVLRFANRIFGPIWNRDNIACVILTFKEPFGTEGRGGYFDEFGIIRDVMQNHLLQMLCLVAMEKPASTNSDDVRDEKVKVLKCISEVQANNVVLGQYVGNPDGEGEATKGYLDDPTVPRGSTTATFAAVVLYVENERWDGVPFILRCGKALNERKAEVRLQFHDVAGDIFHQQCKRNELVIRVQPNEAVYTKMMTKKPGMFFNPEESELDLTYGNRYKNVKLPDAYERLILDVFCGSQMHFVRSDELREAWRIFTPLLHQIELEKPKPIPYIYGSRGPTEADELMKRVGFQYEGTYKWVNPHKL

A word on the EC50: it is the concentration at which the effect is half-maximal. As for `C[C@@H]1CC[C@H]2[C@@H](C)C(=O)O[C@@H]3O[C@@]4(C)CC[C@@H]1[C@]32OO4` [ATS, artemisinin], the “Increase of redox ratio (405/488 nm)” value in data set [1] is recorded as “hardly affected”. Besides, the “Direct interaction with recombinantly purified hGrx1-roGFP2 probe” value at recombinant hGrx1-roGFP2 was “excluded a direct interaction”. The EC50 in the data set on P. falciparum 3D7 was 4.4 nM.

In the case of `CCN(CC)CCCC(C)Nc1ccnc2cc(Cl)ccc12` (stereo not drawn) [CQ, chloroquine], in data set [1], the “Increase of redox ratio (405/488 nm)” value is 1.5 fold. Also, at recombinant hGrx1-roGFP2, the “Direct interaction with recombinantly purified hGrx1-roGFP2 probe” value is “excluded a direct interaction”. Moreover, in the data set with P. falciparum 3D7, the EC50 is 8.6 nM.

The IC50 is the concentration that inhibits the measured activity by half. As to `O=c1oc2c(O)c(O)cc3c(=O)oc4c(O)c(O)cc1c4c23` [ellagic acid], the IC50 against PvG6PD was 32.5 ± 13.4 nM; on PfGluPho (ellagic acid, read-out: IC50 on PfGluPho) it was 77 ± 22 nM; at hG6PD it was 102 ± 39 nM. Further, the “Type of inhibition of PvG6PD” value on PvG6PD is on record as “mixed type inhibitor”; on PvG6PD (listed as EA), “mixed type inhibition”. Also, the “Type of inhibition of PfGluPho” value at PfGluPho (with respect to both G6P and NADP+) is “mixed type inhibition”. Besides, in the data set with P. falciparum strains, the “Interaction with chloroquine, atovaquone, mefloquine, and artesunate” value was “synergistic effects”. The “Sensitivity of GSH-overproducing P. yoelii strain versus wt” value in data set [2] is on record as “five times less sensitive”. In addition, in data set [3] (mice), the Haemolytic effects entry was “no observable haemolytic effects”. Also, in data set [3] (mouse, in vivo), the “Overall toxicity in mice” value was “low”.

What is called stoichiometry N is a count of units in the complex or per binding partner. With PfPrx1a (enzyme), the stoichiometry N in [4] was 2.

B1: Plasmodium vivax glucose 6-phosphate dehydrogenase (PvG6PD), C-terminal part (aa 310-927) of PvGluPho (domain or fragment, UniProt A5K3M1 310-927, looked up)
chain: LNRRECLTIIVFGCSGDLAKKKIYPAIFKLFCNKRLPKDLLIVGFARTAQSFDSFFDKIVGYLKRCLHSYEDLSLTQKKDLLNCFKNKCRYYIGDYSSSESFERFNKYLTQLERENLIGTAPTSWAAAAGNASFANDTDKVEHHPDEAILAKGTGAATPGEAPGGANGPATHGEAHGGANGLSTPMQGKAVPTDDTSDEGHSGANHPFAINRILYLALPPHIFVSTLKNYKKNCQNGNGTDKILLEKPFGKDLQTFKVLSKQILENFNEEHIYRIDHYLGKDMVSGLLKLKFTNTFLLSLMNRHFIKCIKITLKETKGVYGRGQYFDPYGIIRDVMQNHMLQLLALITMEDPIDLNDESVKNEKIKILKCIQSIKLDNTIIGQYVKSENYQEEKNLSAPPSDDHPVDESKRNHSYHDDPHIDSNSITPTFCTCILYINSINWYGVPIIFKAGKGLNKDICEIRLQFHNIMGSSDESMYNNEFVIILQPVEVIYLKMMIKKTGCEEMEEVQLNLTVNHKNKKNYVPEAYETLLLECFRGFKKKFISDEELYESWRIFTPLLNELQEKKVQPLKYPFGSSGPKEVYDLVKKYYNYGKNYANTPAFVRKSSFYEDDLLDIN
notes: glucose 6-phosphate dehydrogenase 6-phosphogluconolactonase (PvGluPho) of Plasmodium vivax, PlasmoDB PVX_117790; G6PD part, aa 310-927 (bp 930-2784); Calculated mass of the His-tagged protein 71.9 kDa; also called P. vivax G6PD; source: E. coli M15 with pRAREII (pQE30 vector), purified (Ni-NTA, size exclusion chromatography); not shown: His6, N-terminal, kept
Regarding B1, the “stoichiometry N” value in [5] turned out to be 6.
